Results published in patent publication US12606541B2, “PPARg modulators and methods of use” (Eisai R&D Management Co., Ltd., priority 2020, dated 2026).

Molecular target: T1, His6-TEV-PPARγ-(234-505) (Homo sapiens, UniProt P37231)
T1 construct: The His6-TEV-PPARγ-(234-505) protein for assay was expressed and purified; TEV cleavage site (N); made in house
T1 sequence (P37231 234-505): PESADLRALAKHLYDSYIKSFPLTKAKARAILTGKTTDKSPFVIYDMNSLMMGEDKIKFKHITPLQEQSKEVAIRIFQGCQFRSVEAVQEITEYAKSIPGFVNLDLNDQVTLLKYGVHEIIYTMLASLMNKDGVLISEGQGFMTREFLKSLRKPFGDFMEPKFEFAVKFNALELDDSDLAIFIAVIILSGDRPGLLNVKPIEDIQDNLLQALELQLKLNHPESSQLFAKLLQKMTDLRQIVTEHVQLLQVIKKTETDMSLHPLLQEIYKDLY
Test: TR-FRET Assay to Measure Co-R Peptide Recruitment to PPARγ
Type: biochemical
Settings: Co-R peptide recruitment to PPARγ; read-out: TR-FRET AC50
In short: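 His-tagged PPARγ (or controls) was preincubated with compound for 20 minutes at room temperature, then 5 nM anti-His terbium antibody and 200 nM FITC-labeled SMRT-ID2 corepressor peptide (final) were added for a further hour. TR-FRET signal was normalized to percent response using 500 nM T0070907 and DMSO controls.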

Compound	AC50 [µM]
COc1cc(-c2cc(C(=O)N3CCC(C(=O)NC(C)c4ncccn4)CC3)n[nH]2)c(Cl)cn1 (stereo not shown) [1-[5-(5-chloro-2-methoxypyridin-4-yl)-1H-pyrazole-3-carbonyl]-N-[1-(pyrimidin-2-yl)ethyl]piperidine-4-carboxamide]	> 1
COc1cc(-c2cc(C(=O)N3CCC(C(=O)NCCn4ccccc4=O)CC3)n[nH]2)c(Cl)cn1 [1-[5-(5-chloro-2-methoxypyridin-4-yl)-1H-pyrazole-3-carbonyl]-N-[2-(2-oxo-1,2-dihydropyridin-1-yl)ethyl]piperidine-4-carboxamide]	> 1
COc1cc(-c2cc(C(=O)N3CCC(C(=O)NC(C)(C)c4cccc(Cl)c4)CC3)n[nH]2)c(Cl)cn1 [1-[5-(5-chloro-2-methoxypyridin-4-yl)-1H-pyrazole-3-carbonyl]-N-[2-(3-chlorophenyl)propan-2-yl]piperidine-4-carboxamide]	> 1
COc1cc(-c2cc(C(=O)N3CCC(C(=O)NC4CC4C(F)(F)F)CC3)n[nH]2)c(Cl)cn1 (stereo not shown) [1-[5-(5-chloro-2-methoxypyridin-4-yl)-1H-pyrazole-3-carbonyl]-N-[2-(trifluoromethyl)cyclopropyl]piperidine-4-carboxamide]	> 1
COc1cc(-c2cc(C(=O)N3CCC(C(=O)Nc4cc(C(F)(F)F)no4)CC3)n[nH]2)c(Cl)cn1 [1-[5-(5-chloro-2-methoxypyridin-4-yl)-1H-pyrazole-3-carbonyl]-N-[3-(trifluoromethyl)-1,2-oxazol-5-yl]piperidine-4-carboxamide]	> 1
COc1cc(-c2cc(C(=O)N3CCC(C(=O)Nc4ccc(CS(C)(=O)=O)cc4)CC3)n[nH]2)c(Cl)cn1 [1-[5-(5-chloro-2-methoxypyridin-4-yl)-1H-pyrazole-3-carbonyl]-N-[4-(methanesulfonylmethyl)phenyl]piperidine-4-carboxamide]	> 1
COc1cc(-c2cc(C(=O)N3CCC(C(=O)Nc4cc(C(F)(F)F)ccn4)CC3)n[nH]2)c(Cl)cn1 [1-[5-(5-chloro-2-methoxypyridin-4-yl)-1H-pyrazole-3-carbonyl]-N-[4-(trifluoromethyl)pyridin-2-yl]piperidine-4-carboxamide]	> 1
COc1cc(-c2cc(C(=O)N3CCC(C(=O)Nc4ncc(C(C)C)s4)CC3)n[nH]2)c(Cl)cn1 [1-[5-(5-chloro-2-methoxypyridin-4-yl)-1H-pyrazole-3-carbonyl]-N-[5-(propan-2-yl)-1,3-thiazol-2-yl]piperidine-4-carboxamide]	> 1
COc1cc(-c2cc(C(=O)N3CCC(C(=O)NCc4ncon4)CC3)n[nH]2)c(Cl)cn1 [1-[5-(5-chloro-2-methoxypyridin-4-yl)-1H-pyrazole-3-carbonyl]-N-[(1,2,4-oxadiazol-3-yl)methyl]piperidine-4-carboxamide]	> 1
COc1cc(-c2cc(C(=O)N3CCC(C(=O)NCc4ccon4)CC3)n[nH]2)c(Cl)cn1 [1-[5-(5-chloro-2-methoxypyridin-4-yl)-1H-pyrazole-3-carbonyl]-N-[(1,2-oxazol-3-yl)methyl]piperidine-4-carboxamide]	> 1
COc1cc(-c2cc(C(=O)N3CCC(C(=O)NCc4c(C)nn(C)c4C)CC3)n[nH]2)c(Cl)cn1 [1-[5-(5-chloro-2-methoxypyridin-4-yl)-1H-pyrazole-3-carbonyl]-N-[(1,3,5-trimethyl-1H-pyrazol-4-yl)methyl]piperidine-4-carboxamide]	> 1
COc1cc(-c2cc(C(=O)N3CCC(C(=O)NCC4OCCCO4)CC3)n[nH]2)c(Cl)cn1 [1-[5-(5-chloro-2-methoxypyridin-4-yl)-1H-pyrazole-3-carbonyl]-N-[(1,3-dioxan-2-yl)methyl]piperidine-4-carboxamide]	> 1
COc1cc(-c2cc(C(=O)N3CCC(C(=O)NCC4CCOCO4)CC3)n[nH]2)c(Cl)cn1 (stereo not shown) [1-[5-(5-chloro-2-methoxypyridin-4-yl)-1H-pyrazole-3-carbonyl]-N-[(1,3-dioxan-4-yl)methyl]piperidine-4-carboxamide]	> 1
COc1cc(-c2cc(C(=O)N3CCC(C(=O)NCC4OCCO4)CC3)n[nH]2)c(Cl)cn1 [1-[5-(5-chloro-2-methoxypyridin-4-yl)-1H-pyrazole-3-carbonyl]-N-[(1,3-dioxolan-2-yl)methyl]piperidine-4-carboxamide]	> 1
COc1cc(-c2cc(C(=O)N3CCC(C(=O)NCc4ncco4)CC3)n[nH]2)c(Cl)cn1 [1-[5-(5-chloro-2-methoxypyridin-4-yl)-1H-pyrazole-3-carbonyl]-N-[(1,3-oxazol-2-yl)methyl]piperidine-4-carboxamide]	> 1
COc1cc(-c2cc(C(=O)N3CCC(C(=O)NCc4cnco4)CC3)n[nH]2)c(Cl)cn1 [1-[5-(5-chloro-2-methoxypyridin-4-yl)-1H-pyrazole-3-carbonyl]-N-[(1,3-oxazol-5-yl)methyl]piperidine-4-carboxamide]	> 1
COc1cc(-c2cc(C(=O)N3CCC(C(=O)NCC4COCCO4)CC3)n[nH]2)c(Cl)cn1 (stereo not shown) [1-[5-(5-chloro-2-methoxypyridin-4-yl)-1H-pyrazole-3-carbonyl]-N-[(1,4-dioxan-2-yl)methyl]piperidine-4-carboxamide]	> 1
COc1cc(-c2cc(C(=O)N3CCC(C(=O)NCC4(C#N)CC4)CC3)n[nH]2)c(Cl)cn1 [1-[5-(5-chloro-2-methoxypyridin-4-yl)-1H-pyrazole-3-carbonyl]-N-[(1-cyanocyclopropyl)methyl]piperidine-4-carboxamide]	> 1
COc1cc(-c2cc(C(=O)N3CCC(C(=O)NCC4(O)CCC4)CC3)n[nH]2)c(Cl)cn1 [1-[5-(5-chloro-2-methoxypyridin-4-yl)-1H-pyrazole-3-carbonyl]-N-[(1-hydroxycyclobutyl)methyl]piperidine-4-carboxamide]	> 1
COc1cc(-c2cc(C(=O)N3CCC(C(=O)NCC4(O)CC4)CC3)n[nH]2)c(Cl)cn1 [1-[5-(5-chloro-2-methoxypyridin-4-yl)-1H-pyrazole-3-carbonyl]-N-[(1-hydroxycyclopropyl)methyl]piperidine-4-carboxamide]	> 1
COc1cc(-c2cc(C(=O)N3CCC(C(=O)NCc4nccn4C)CC3)n[nH]2)c(Cl)cn1 [1-[5-(5-chloro-2-methoxypyridin-4-yl)-1H-pyrazole-3-carbonyl]-N-[(1-methyl-1H-imidazol-2-yl)methyl]piperidine-4-carboxamide]	> 1

More lines, now with the values ahead:

AC50 [µM]	Compound
> 1	COc1cc(-c2cc(C(=O)N3CCC(C(=O)NCc4cn(C)cn4)CC3)n[nH]2)c(Cl)cn1 [1-[5-(5-chloro-2-methoxypyridin-4-yl)-1H-pyrazole-3-carbonyl]-N-[(1-methyl-1H-imidazol-4-yl)methyl]piperidine-4-carboxamide]
> 1	COc1cc(-c2cc(C(=O)N3CCC(C(=O)NCc4ccn(C)n4)CC3)n[nH]2)c(Cl)cn1 [1-[5-(5-chloro-2-methoxypyridin-4-yl)-1H-pyrazole-3-carbonyl]-N-[(1-methyl-1H-pyrazol-3-yl)methyl]piperidine-4-carboxamide]
> 1	COc1cc(-c2cc(C(=O)N3CCC(C(=O)NCC4CC(=O)N(C)C4)CC3)n[nH]2)c(Cl)cn1 (stereo not shown) [1-[5-(5-chloro-2-methoxypyridin-4-yl)-1H-pyrazole-3-carbonyl]-N-[(1-methyl-5-oxopyrrolidin-3-yl)methyl]piperidine-4-carboxamide]
> 1	COc1cc(-c2cc(C(=O)N3CCC(C(=O)NCC4CN(C)C4)CC3)n[nH]2)c(Cl)cn1 [1-[5-(5-chloro-2-methoxypyridin-4-yl)-1H-pyrazole-3-carbonyl]-N-[(1-methylazetidin-3-yl)methyl]piperidine-4-carboxamide]
> 1	COc1cc(-c2cc(C(=O)N3CCC(C(=O)NCc4ccc5[nH]ncc5c4)CC3)n[nH]2)c(Cl)cn1 [1-[5-(5-chloro-2-methoxypyridin-4-yl)-1H-pyrazole-3-carbonyl]-N-[(1H-indazol-5-yl)methyl]piperidine-4-carboxamide]
> 1	COc1cc(-c2cc(C(=O)N3CCC(C(=O)NCc4c(F)ccc(C)c4F)CC3)n[nH]2)c(Cl)cn1 [1-[5-(5-chloro-2-methoxypyridin-4-yl)-1H-pyrazole-3-carbonyl]-N-[(2,6-difluoro-3-methylphenyl)methyl]piperidine-4-carboxamide]
> 1	COc1cc(-c2cc(C(=O)N3CCC(C(=O)NCc4ccccc4C#N)CC3)n[nH]2)c(Cl)cn1 [1-[5-(5-chloro-2-methoxypyridin-4-yl)-1H-pyrazole-3-carbonyl]-N-[(2-cyanophenyl)methyl]piperidine-4-carboxamide]
> 1	COc1cc(-c2cc(C(=O)N3CCC(C(=O)NCC4(C)OCCO4)CC3)n[nH]2)c(Cl)cn1 [1-[5-(5-chloro-2-methoxypyridin-4-yl)-1H-pyrazole-3-carbonyl]-N-[(2-methyl-1,3-dioxolan-2-yl)methyl]piperidine-4-carboxamide]
> 1	COc1cc(-c2cc(C(=O)N3CCC(C(=O)NCc4ccc5c(c4)CN(C)C5)CC3)n[nH]2)c(Cl)cn1 [1-[5-(5-chloro-2-methoxypyridin-4-yl)-1H-pyrazole-3-carbonyl]-N-[(2-methyl-2,3-dihydro-1H-isoindol-5-yl)methyl]piperidine-4-carboxamide]
> 1	COc1cc(-c2cc(C(=O)N3CCC(C(=O)NCC4(C)CCCO4)CC3)n[nH]2)c(Cl)cn1 (stereo not shown) [1-[5-(5-chloro-2-methoxypyridin-4-yl)-1H-pyrazole-3-carbonyl]-N-[(2-methyloxolan-2-yl)methyl]piperidine-4-carboxamide]
